According to ChEMBL document CHEMBL4715706, “Discovery of Benzotriazolo[4,3-d][1,4]diazepines as Orally Active Inhibitors of BET Bromodomains” (ACS Med Chem Lett, 2016):

Experiments:
[1] = biological target: T1, Bromodomain-containing protein 1 (Homo sapiens, UniProt O95696); assay: Inhibition of BRD1 (unknown origin) measured after 70 mins by TR-FRET assay
T1 sequence (O95696 whole entry): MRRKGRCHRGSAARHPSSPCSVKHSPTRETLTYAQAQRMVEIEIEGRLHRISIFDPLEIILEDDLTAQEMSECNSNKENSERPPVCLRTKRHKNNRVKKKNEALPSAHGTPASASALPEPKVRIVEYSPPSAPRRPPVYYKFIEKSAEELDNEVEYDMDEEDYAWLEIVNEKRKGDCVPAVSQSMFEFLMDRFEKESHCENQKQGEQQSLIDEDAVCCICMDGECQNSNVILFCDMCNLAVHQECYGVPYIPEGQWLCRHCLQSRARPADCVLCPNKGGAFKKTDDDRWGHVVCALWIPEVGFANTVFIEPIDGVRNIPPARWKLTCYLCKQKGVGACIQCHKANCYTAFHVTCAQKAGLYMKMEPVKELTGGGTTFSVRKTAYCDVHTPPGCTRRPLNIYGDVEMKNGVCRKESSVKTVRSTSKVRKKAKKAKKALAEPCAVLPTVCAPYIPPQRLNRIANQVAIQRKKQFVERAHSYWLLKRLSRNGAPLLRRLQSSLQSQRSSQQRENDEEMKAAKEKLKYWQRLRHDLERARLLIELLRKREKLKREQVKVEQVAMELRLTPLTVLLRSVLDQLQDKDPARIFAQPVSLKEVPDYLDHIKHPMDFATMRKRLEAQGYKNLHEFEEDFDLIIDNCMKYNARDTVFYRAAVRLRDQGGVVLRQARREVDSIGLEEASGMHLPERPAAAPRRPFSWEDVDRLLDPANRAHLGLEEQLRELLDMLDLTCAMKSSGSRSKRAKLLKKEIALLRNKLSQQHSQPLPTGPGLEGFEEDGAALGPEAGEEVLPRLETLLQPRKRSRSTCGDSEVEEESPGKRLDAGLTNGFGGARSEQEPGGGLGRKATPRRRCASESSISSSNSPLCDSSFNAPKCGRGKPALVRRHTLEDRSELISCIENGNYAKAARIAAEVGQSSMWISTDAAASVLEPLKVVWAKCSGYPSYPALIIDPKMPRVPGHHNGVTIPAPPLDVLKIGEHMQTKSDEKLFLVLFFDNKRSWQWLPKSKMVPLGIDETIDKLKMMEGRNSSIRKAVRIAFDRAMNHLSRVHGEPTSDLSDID

[2] = biological target: Bromodomain-containing protein 2 (Homo sapiens, UniProt P25440); assay: Inhibition of BRD2 BD1 (unknown origin) using biotinylated JQ1 analog as substrate measured after 20 mins by AlphaLISA assay
Bromodomain-containing protein 2, sequence (P25440 whole entry): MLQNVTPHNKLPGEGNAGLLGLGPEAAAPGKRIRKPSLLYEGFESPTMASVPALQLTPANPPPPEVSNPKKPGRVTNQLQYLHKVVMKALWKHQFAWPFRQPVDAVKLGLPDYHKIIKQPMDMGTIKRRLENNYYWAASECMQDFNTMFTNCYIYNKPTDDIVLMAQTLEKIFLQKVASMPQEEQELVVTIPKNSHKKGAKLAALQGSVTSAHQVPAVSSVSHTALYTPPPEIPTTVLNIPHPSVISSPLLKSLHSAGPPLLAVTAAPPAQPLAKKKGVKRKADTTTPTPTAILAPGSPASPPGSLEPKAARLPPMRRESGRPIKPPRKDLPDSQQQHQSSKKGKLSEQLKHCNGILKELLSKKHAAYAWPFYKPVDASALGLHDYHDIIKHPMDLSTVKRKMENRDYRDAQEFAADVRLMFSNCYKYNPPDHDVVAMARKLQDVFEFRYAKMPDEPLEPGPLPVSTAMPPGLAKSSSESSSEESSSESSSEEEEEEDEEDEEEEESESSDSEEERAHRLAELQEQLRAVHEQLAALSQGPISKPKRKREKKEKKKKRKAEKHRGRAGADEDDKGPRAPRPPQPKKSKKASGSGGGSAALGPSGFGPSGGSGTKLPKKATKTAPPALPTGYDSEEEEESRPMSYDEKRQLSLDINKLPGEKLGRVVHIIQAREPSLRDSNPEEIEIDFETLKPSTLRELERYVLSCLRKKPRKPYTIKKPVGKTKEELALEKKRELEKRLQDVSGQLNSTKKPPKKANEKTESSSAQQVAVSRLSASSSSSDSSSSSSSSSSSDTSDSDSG

[3] = Volume of distribution at steady state in rat at 1 mg/kg, iv; type: ADME, organism-based; conditions: in vivo, read-out: Vdss
[4] = biological target: T2, Bromodomain and PHD finger-containing protein 3 (Homo sapiens, UniProt Q9ULD4); assay: Inhibition of BRPF3 (unknown origin) measured after 70 mins by TR-FRET assay
T2 sequence (Q9ULD4 whole entry): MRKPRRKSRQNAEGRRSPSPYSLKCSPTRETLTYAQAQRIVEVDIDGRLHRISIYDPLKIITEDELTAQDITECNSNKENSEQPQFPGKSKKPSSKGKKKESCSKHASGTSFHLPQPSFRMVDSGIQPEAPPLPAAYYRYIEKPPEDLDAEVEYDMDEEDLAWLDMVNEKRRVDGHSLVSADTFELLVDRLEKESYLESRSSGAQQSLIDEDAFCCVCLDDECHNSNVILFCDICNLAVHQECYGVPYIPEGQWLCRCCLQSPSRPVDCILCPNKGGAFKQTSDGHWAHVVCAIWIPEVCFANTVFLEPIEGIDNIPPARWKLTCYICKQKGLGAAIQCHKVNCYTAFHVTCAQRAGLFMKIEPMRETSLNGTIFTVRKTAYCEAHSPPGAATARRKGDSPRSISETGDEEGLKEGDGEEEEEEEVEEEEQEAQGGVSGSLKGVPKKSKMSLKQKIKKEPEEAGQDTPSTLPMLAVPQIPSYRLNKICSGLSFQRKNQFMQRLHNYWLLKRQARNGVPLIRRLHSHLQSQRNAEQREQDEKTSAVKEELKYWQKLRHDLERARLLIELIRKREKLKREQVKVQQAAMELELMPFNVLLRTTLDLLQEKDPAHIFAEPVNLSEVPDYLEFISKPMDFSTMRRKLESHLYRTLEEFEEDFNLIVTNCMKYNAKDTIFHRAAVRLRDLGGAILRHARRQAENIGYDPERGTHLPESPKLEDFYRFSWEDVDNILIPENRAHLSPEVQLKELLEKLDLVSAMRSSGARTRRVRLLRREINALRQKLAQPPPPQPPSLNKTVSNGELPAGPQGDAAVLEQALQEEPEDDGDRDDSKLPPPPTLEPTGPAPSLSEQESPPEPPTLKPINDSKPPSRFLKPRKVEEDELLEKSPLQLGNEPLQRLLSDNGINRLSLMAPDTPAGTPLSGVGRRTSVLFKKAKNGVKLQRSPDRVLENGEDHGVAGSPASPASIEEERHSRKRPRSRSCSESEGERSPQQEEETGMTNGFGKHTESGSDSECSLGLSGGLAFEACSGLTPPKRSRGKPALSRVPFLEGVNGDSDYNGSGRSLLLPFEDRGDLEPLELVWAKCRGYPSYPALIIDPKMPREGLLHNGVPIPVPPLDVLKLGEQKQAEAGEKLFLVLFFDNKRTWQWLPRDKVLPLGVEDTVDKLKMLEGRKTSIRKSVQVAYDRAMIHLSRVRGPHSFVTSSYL

[5] = Inhibition of BET in human THP-1 cells assessed as suppression of LPS-induced IL-6 release measured after 16 hrs by chemiluminescence ELISA; type: cell-based; conditions: THP-1, 16 h
[6] = Intrinsic clearance in dog liver microsomes

IC50 [1]: > 15000 nM
IC50 [2]: 3 nM
Vd [3]: 2.2 L/kg
IC50 [4]: > 15000 nM
EC50 [5]: 13 nM
microsomal CLint [6]: 19 µL/min/mg
Structure (SMILES): Cc1nnc2n1-c1ccc(-c3ccc(N)nc3)cc1N(c1ccc(Cl)cc1)C[C@H]2C
